In patent US20240199701A1, “IMMUNOMODULATORS” (BRISTOL-MYERS SQUIBB COMPANY, priority 2021, published 2024):
Like-named read-outs stand apart in the source and are kept apart here. Starred links: 1 amine or outer side, 2 acyl side, 3 side chain; linkers in the order of their positions; H or OH if unused. Positions of bridges follow the written chain, without caps; N, C: chain ends. Non-standard residues stand in square brackets, D forms with d. Groups on a side chain read outwards from the residue. Primed or numbered codes have the meaning given here. *: point of attachment. Trp(1-CH2CO) = O=C([C@H](Cc1cn(CC(=O)[*:3])c2ccccc12)N[*:1])[*:2]; Pra′ = C-terminal residue bearing an alkyne, joined as triazole; Hexadecanoyl(16-SO3H) = O=C(CCCCCCCCCCCCCCCS(=O)(=O)O)*; γGlu = O=C(O)[C@H](CCC(=O)[*:2])N[*:1]; Hyp = O=C(O)[C@@H]1C[C@@H](O)CN1; NMeNle = CCCC[C@H](NC)C(=O)O; PEG11′ = not defined here; NMeA = CN[C@@H](C)C(=O)O; Dab = NCC[C@H](N)C(=O)O; Dap = NC[C@H](N)C(=O)O

Assays:
[1] = target: T1, 293T-hPD-L1 cells (binding of PE-labeled PD-1-Ig to human PD-L1) (Homo sapiens, UniProt Q9NZQ7); assay: 293T-hPD-L1 Cell Binding High-Content Screening Assay (CBA); format: cell-based; settings: 293T cells over-expressing human PD-L1, PE-labeled PD-1-Ig 0.5 nM, 10% fetal calf serum; read-out: 293T-hPD-L1_PD-1 IC50
T1 construct: expressed in transfected cells
Method: 293T-hPD-L1 Cell Binding High-Content Screening Assay (CBA). Phycoerythrin (PE) was covalently linked to the Ig epitope tag of human PD-1-Ig and fluorescently-labeled PD-1-Ig was used for binding studies with a human embryonic kidney cell line (293T) stably over-expressing human PD-L1 (293T-hPD-L1). Briefly, 2×10^3 293T-hPD-L1 cells were seeded into 384 well plates in 20 μl of DMEM supplemented with 10% fetal calf serum and cultured overnight. 125 nl of compound was added to cells followed by 5 μl of PE-labeled PD-1-Ig (0.5 nM final), diluted in DMEM supplemented with 10% fetal calf serum, followed by incubation at 37° C. for Ih. Cells were washed 3× in 100 μl dPBS followed by fixation with 30 μl of 4% paraformaldehyde in dPBS containing 10 μg/ml Hoechst 33342 for 30 min at room temperature. Cells were washed 3× in 100 μl of dPBS followed by final addition of 15 μl of dPBS. Data was collected and processed using a Cell Insight NXT High Content Imager and associated software.

PD-1-Ig/PD-L1-His = target: T2, PD-1-Ig/PD-L1-His (Homo sapiens, UniProt Q9NZQ7); assay: PD-1/PD-L1 Homogenous Time-Resolved Fluorescence (HTRF) binding assay
T2 construct: hPDL1(19-239)-TVMV-His; TVMV protease cleavage site (C); made in house; host or cells: HEK293T
From the text: The ability of the macrocyclic peptides of the present disclosure to bind to PD-L1 was investigated using a PD-1/PD-L1 Homogenous Time-Resolved Fluorescence (HTRF) binding assay.
Homogenous Time-Resolved Fluorescence (HTRF) Assays of Binding of Soluble PD-1 to Soluble PD-L1. Soluble PD-1 and soluble PD-L1 refers to proteins with carboxyl-end truncations that remove the transmembrane-spanning regions and are fused to heterologous sequences, specifically the Fc portion of the human immunoglobulin G sequence (Ig) or the hexahistidine epitope tag (His). All binding studies were performed in an HTRF assay buffer consisting of dPBS supplemented with 0.1% (w/v) bovine serum albumin and 0.05% (v/v) Tween-20. For the PD-1-Ig/PD-L1-His binding assay, inhibitors were pre-incubated with PD-L1-His (10 nM final) for 15 m in 4 μl of assay buffer, followed by addition of PD-1-Ig (20 nM final) in 1 μl of assay buffer and further incubation for 15 m. PD-L1 fusion proteins from either human, cynomologous macaques, mouse, or other species were used. HTRF detection was achieved using europium crypate-labeled anti-Ig monoclonal antibody (1 nM final) and allophycocyanin (APC) labeled anti-His monoclonal antibody (20 nM final). Antibodies were diluted in HTRF detection buffer and 5 μl was dispensed on top of binding reaction. The reaction was allowed to equilibrate for 30 minutes and signal (665 nm/620 nm ratio) was obtained using an EnVision fluorometer. Additional binding assays were established between PD-1-Ig/PD-L2-His (20 and 5 nM, respectively), CD80-His/PD-L1-Ig (100 and 10 nM, respectively) and CD80-His/CTLA4-Ig (10 and 5 nM, respectively).
Recombinant Proteins. Carboxyl-truncated human PD-1 (amino acids 25-167) with a C-terminal human Ig epitope tag [hPD-1 (25-167)-3S-IG] and human PD-L1 (amino acids 18-239) with a C-terminal His epitope tag [hPD-L1(19-239)-tobacco vein mottling virus protease cleavage site (TVMV)-His] were expressed in HEK293T cells and purified sequentially by recombinant Protein A affinity chromatography and size exclusion chromatography. Human PD-L2-His (Sino Biologicals), CD80-His (Sino Biologicals), CTLA4-Ig (RnD Systems) were all obtained through commercial sources.

[2] = target: Recombinant Human PD-L1-TVMV-His, hPDL1(19-239)-TVMV-His (human) (UniProt Q9NZQ7); assay: HTRF competition, inhibits PD-1-Ig binding to PD-L1-His
[3] = soluble hPD-1-Ig / hPD-L1-His, HTRF, read-out: LE HTRF hPD1 hPDL1 IC50

T1 sequence (Q9NZQ7 19-290): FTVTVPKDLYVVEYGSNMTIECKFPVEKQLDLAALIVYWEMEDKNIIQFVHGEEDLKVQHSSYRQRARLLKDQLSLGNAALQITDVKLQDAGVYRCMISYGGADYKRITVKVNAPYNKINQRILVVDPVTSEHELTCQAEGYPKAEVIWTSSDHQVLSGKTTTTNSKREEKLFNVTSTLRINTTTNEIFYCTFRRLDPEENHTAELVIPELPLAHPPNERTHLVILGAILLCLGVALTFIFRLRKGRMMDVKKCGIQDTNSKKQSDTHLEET
Sequence of Recombinant Human PD-L1-TVMV-His, hPDL1(19-239)-TVMV-His (human) (Q9NZQ7 other isoform, or with tags, fused parts or gaps limits assumed): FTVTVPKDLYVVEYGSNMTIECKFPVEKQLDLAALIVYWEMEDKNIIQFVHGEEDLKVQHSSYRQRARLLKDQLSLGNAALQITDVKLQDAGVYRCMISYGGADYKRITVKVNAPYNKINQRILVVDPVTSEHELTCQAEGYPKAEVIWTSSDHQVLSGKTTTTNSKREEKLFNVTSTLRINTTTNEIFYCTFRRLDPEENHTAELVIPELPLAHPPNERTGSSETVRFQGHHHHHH

Molecule	IC50 [1] [nM]	IC50 (PD-1-Ig/PD-L1-His; [3]) [nM]	other results
CCCC[C@H]1C(=O)N(C)[C@@H](CCCC)C(=O)N[C@@H](CC(C)C)C(=O)N[C@H](C(=O)NCC(=O)N[C@@H](Cc2cn(CCOCCOCCOCCOCCOCCOCCOCCOCCOCCOCCOCCNC(=O)CC[C@H](NC(=O)CCCCCCCCCCCCCCCP(=O)(O)O)C(=O)O)nn2)C(=O)O)CSCC(=O)N[C@@H](Cc2ccc(O)cc2)C(=O)N(C)[C@@H](C)C(=O)N[C@@H](CC(N)=O)C(=O)N2CCC[C@H]2C(=O)N[C@@H](CN)C(=O)N[C@@H](CC(C)C)C(=O)N2C[C@H](O)C[C@H]2C(=O)N[C@@H](Cc2c[nH]c3ccccc23)C(=O)N[C@@H](CCN)C(=O)N[C@@H](Cc2cn(CC(=O)O)c3ccccc23)C(=O)N1C [Example 1007]			IC50 (PD-1-Ig/PD-L1-His): 14 nM
CCCC[C@H]1C(=O)N(C)[C@@H](CCCC)C(=O)N[C@@H](CC(C)C)C(=O)N[C@H](C(=O)NCC(=O)N[C@@H](Cc2cn(CCOCCOCCOCCOCCOCCOCCOCCOCCOCCOCCOCCNC(=O)CC[C@H](NC(=O)CCCCCCCCCCCCCCCS(=O)(=O)O)C(=O)O)nn2)C(=O)O)CSCC(=O)N[C@@H](Cc2ccc(O)cc2)C(=O)N(C)[C@@H](C)C(=O)N[C@@H](CC(N)=O)C(=O)N2CCC[C@H]2C(=O)N[C@@H](CN)C(=O)N[C@@H](CC(C)C)C(=O)N2C[C@H](O)C[C@H]2C(=O)N[C@@H](Cc2c[nH]c3ccccc23)C(=O)N[C@@H](CCN)C(=O)N[C@@H](Cc2cn(CC(=O)O)c3ccccc23)C(=O)N1C [Example 1008]	1.2	7.3	
{CH2CO}-Y[NMeA]NP[Dap]L[Hyp]W[Dab][Trp(1-CH2CO)][NMeNle][NMeNle]LC[Pra′]([PEG11′-γGlu-Hexadecanoyl(16-SO3H)])-OH (thioether N-14; also: Pra linked to Peg11 via triazole) [Example 1001]			IC50 [2]: 0.6 nM

The next lines start with results.

IC50 [1] [nM]	IC50 (PD-1-Ig/PD-L1-His; [3]) [nM]	Molecule	other results
0.1	2	CCCC[C@H]1C(=O)N(C)[C@@H](CCCC)C(=O)N[C@@H](CC(C)C)C(=O)N[C@H](C(=O)N[C@@H](C)C(=O)N[C@@H](Cc2cn(CCOCCOCCOCCOCCOCCOCCOCCOCCOCCOCCOCCNC(=O)CC[C@H](NC(=O)CCCCCCCCCCCCCCCS(=O)(=O)O)C(=O)O)nn2)C(=O)O)CSCC(=O)N[C@@H](Cc2ccc(O)cc2)C(=O)N(C)[C@@H](C)C(=O)N[C@@H](CC(N)=O)C(=O)N2CCC[C@H]2C(=O)N[C@@H](CN)C(=O)N[C@@H](CC(C)C)C(=O)N2C[C@H](O)C[C@H]2C(=O)N[C@@H](Cc2c[nH]c3ccccc23)C(=O)N[C@@H](CCN)C(=O)N[C@@H](Cc2cn(CC(=O)O)c3ccccc23)C(=O)N1C [Example 1002]	
	38.1	CCCC[C@H]1C(=O)N(C)[C@@H](CCCC)C(=O)N[C@@H](CC(C)C)C(=O)N[C@H](C(=O)N[C@@H](CCCN)C(=O)N[C@@H](Cc2cn(CCOCCOCCOCCOCCOCCOCCOCCOCCOCCOCCOCCNC(=O)CC[C@H](NC(=O)CCCCCCCCCCCCCCCS(=O)(=O)O)C(=O)O)nn2)C(=O)O)CSCC(=O)N[C@@H](Cc2ccc(O)cc2)C(=O)N(C)[C@@H](C)C(=O)N[C@@H](CC(N)=O)C(=O)N2CCC[C@H]2C(=O)N[C@@H](CN)C(=O)N[C@@H](CC(C)C)C(=O)N2C[C@H](O)C[C@H]2C(=O)N[C@@H](Cc2c[nH]c3ccccc23)C(=O)N[C@@H](CCN)C(=O)N[C@@H](Cc2cn(CC(=O)O)c3ccccc23)C(=O)N1C [Example 1003]	
61.8		CCCC[C@H]1C(=O)N(C)[C@@H](CCCC)C(=O)N[C@@H](CC(C)C)C(=O)N[C@H](C(=O)NCC(=O)N[C@@H](Cc2cn(CCOCCOCCNC(=O)[C@H](CCC(=O)O)NC(=O)CC[C@H](NC(=O)CCCCCCCCCCCCCCCS(=O)(=O)O)C(=O)O)nn2)C(=O)O)CSCC(=O)N[C@@H](Cc2ccc(O)cc2)C(=O)N(C)[C@@H](C)C(=O)N[C@@H](CC(N)=O)C(=O)N2CCC[C@H]2C(=O)N[C@@H](CN)C(=O)N[C@@H](CC(C)C)C(=O)N2C[C@H](O)C[C@H]2C(=O)N[C@@H](Cc2c[nH]c3ccccc23)C(=O)N[C@@H](CCN)C(=O)N[C@@H](Cc2cn(CC(=O)O)c3ccccc23)C(=O)N1C [Example 1006]	
0.13		CCCC[C@H]1C(=O)N(C)[C@@H](CCCC)C(=O)N[C@@H](CC(C)C)C(=O)N[C@H](C(=O)NCC(=O)N[C@@H](Cc2cn(CCOCCOCCOCCNC(=O)CC[C@H](NC(=O)CCCCCCCCCCCS(=O)(=O)O)C(=O)O)nn2)C(=O)O)CSCC(=O)N[C@@H](Cc2ccc(O)cc2)C(=O)N(C)[C@@H](C)C(=O)N[C@@H](CC(N)=O)C(=O)N2CCC[C@H]2C(=O)N[C@@H](CN)C(=O)N[C@@H](CC(C)C)C(=O)N2C[C@H](O)C[C@H]2C(=O)N[C@@H](Cc2c[nH]c3ccccc23)C(=O)N[C@@H](CCN)C(=O)N[C@@H](Cc2cn(CC(=O)O)c3ccccc23)C(=O)N1C [Example 1010]	
